For assay [1], the target named is T1, Estrogen receptor (Homo sapiens, UniProt P03372).
T1 sequence (P03372 whole entry): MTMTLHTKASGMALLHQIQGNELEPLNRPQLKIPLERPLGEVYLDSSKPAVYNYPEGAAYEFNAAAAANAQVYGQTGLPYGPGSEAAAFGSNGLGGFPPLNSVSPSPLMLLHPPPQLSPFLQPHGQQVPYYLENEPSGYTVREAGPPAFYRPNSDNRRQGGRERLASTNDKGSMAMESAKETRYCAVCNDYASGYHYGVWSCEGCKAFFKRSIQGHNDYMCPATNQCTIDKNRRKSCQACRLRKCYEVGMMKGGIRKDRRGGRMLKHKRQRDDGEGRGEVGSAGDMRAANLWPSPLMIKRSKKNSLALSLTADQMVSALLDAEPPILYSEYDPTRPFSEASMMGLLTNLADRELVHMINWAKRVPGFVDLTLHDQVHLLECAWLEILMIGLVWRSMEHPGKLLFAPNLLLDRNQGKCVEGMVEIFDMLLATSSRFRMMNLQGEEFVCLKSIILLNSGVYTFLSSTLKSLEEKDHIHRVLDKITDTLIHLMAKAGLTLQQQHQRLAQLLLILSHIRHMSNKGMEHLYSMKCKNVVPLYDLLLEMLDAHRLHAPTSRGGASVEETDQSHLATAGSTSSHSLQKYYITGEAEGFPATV
Description: Displacement of [3H]-E2 from human ER-alpha incubated for 16 to 20 hrs by liquid scintillation counting analysis

For assay [2], the system named is MCF7. In words: Antiproliferative activity against human MCF7 cells after 72 hrs by MTT assay. For orientation: Tetrazolium dyes change colour on reduction, which living cells bring about.
Assay [3] deals with MDA-MB-468. Kind of assay: Cytotoxicity against human MDA-MB-468 cells assessed as growth inhibition after 48 hrs by SRB assay. The format is functional. As to conditions: MDA-MB-468, 48 h.
The subject of assay [4] is MDA-MB-435. Kind of assay: Cytotoxicity against human MDA-MB-435 cells assessed as growth inhibition after 48 hrs by SRB assay. Format: functional. As to conditions: MDA-MB-435, 48 h. On the technique in general: Sulforhodamine B stains cellular protein and so reports cell mass.
The nature of assay [5]: Cytotoxicity against human SKOV3 cells assessed as growth inhibition after 48 hrs by SRB assay. The format is functional. As to conditions: SK-OV-3, 48 h.
Assay [6] can be described thus: Cytotoxicity against human MOLT4 cells assessed as growth inhibition after 48 hrs by SRB assay. Format: functional. As to conditions: MOLT-4, 48 h.
The nature of assay [7]: Cytotoxicity against human SNB75 cells assessed as growth inhibition after 48 hrs by SRB assay. The note with it: SNB-75, 48 h. The format is functional.
Assay [8] can be described thus: Cytotoxicity against human HCT15 cells assessed as growth inhibition after 48 hrs by SRB assay. Format: functional. The note with it: HCT-15, 48 h.
Assay [9] can be described thus: Cytotoxicity against human UO31 cells assessed as growth inhibition after 48 hrs by SRB assay. The format is functional. As to conditions: UO-31, 48 h.
Assay [10] has as its system MCF7. In words: Cytotoxicity against human MCF7 cells assessed as growth inhibition after 48 hrs by SRB assay. Format: functional. The note with it: MCF7, 48 h.
Assay [11] has as its system EKVX. Kind of assay: Cytotoxicity against human EKVX cells assessed as growth inhibition after 48 hrs by SRB assay. The format is functional.
Assay [12] deals with Estrogen receptor beta (Homo sapiens, UniProt Q92731).
Chain of Estrogen receptor beta (Q92731 whole entry): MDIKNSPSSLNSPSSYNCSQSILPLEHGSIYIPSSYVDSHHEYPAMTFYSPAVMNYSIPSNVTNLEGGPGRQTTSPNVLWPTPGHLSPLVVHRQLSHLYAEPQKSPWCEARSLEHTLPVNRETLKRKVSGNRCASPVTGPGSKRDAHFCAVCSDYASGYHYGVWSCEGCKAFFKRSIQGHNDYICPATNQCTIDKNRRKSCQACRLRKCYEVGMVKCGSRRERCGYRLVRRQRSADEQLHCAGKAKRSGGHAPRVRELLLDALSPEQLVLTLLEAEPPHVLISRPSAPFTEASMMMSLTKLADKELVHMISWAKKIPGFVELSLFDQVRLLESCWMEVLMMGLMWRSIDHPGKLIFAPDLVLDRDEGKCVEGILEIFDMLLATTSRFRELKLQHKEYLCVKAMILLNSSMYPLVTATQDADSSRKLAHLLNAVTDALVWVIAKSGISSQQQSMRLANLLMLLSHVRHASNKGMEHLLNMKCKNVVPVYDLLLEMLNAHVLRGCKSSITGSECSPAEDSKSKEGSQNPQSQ
Description: Displacement of [3H]-E2 from human ER-beta incubated for 16 to 20 hrs by liquid scintillation counting analysis

As a reminder, the IC50 is the concentration that inhibits the measured activity by half. Lower therefore signals greater potency. As to `CC(=O)Oc1ccc(/C(=C(\C)c2ccccc2)c2ccc(OCCN(C)C)cc2)cc1`, the IC50 in assay [1] amounted to 22 nM; in assay [2] (mcf7) it was 2740 nM.

Regarding `CC(=O)Oc1ccc(/C(=C(/C)c2ccccc2)c2ccc(OCCN3CCCCC3)cc2)cc1`, the IC50 was 12.4 nM in [1] and 2460 nM in [2] (mcf7).

What is called GI50 is the concentration giving 50% growth inhibition. In the case of `CC/C(=C(\c1ccccc1)c1ccc(OCCN(C)C)cc1)c1ccccc1` [TAMOXIFEN], the GI50 came out at 2500 nM in [3]; 3160 nM in assay [4]; 10000 nM in assay [5]; 2500 nM in assay [6]; 5010 nM in assay [7]; 3160 nM in [8]. The results for the GI50 in assay [9], in assay [10] and in assay [11] were 6300 nM, 1580 nM and 6300 nM, respectively. The molecule also showed an IC50 in [2] (Homo sapiens, MCF7, 72 h) of 4400 nM.

Regarding `CC(=O)Oc1ccc(/C(=C(/C)c2ccccc2)c2ccc(OCCN3CCCC3)cc2)cc1`, the figures for the IC50 in assay [1], in assay [2] (mcf7) and in [12] were 7.7 nM, 2600 nM and 260 nM, respectively.

As to `CCCC(=O)Oc1ccc(/C(=C(/C)c2ccccc2)c2ccc(OCCN(C)C)cc2)cc1`, the IC50 is 34.5 nM in [1] and 3170 nM in assay [2] (mcf7).

`CCCC(=O)Oc1ccc(/C(=C(/C)c2ccccc2)c2ccc(OCCN3CCCC3)cc2)cc1`: the IC50 is 27.1 nM in assay [1] and 1200 nM in [2] (mcf7).

`CCCC(=O)Oc1ccc(/C(=C(/C)c2ccccc2)c2ccc(OCCN3CCCCC3)cc2)cc1`: the IC50 in assay [1] was determined as 33.3 nM; in [2] (mcf7) it was 2420 nM.

On to `C/C(=C(/c1ccc(O)cc1)c1ccc(OCCN2CCCCC2)cc1)c1ccccc1`, for which the IC50 in assay [1] is 0.4 nM; in assay [2] (mcf7), 1240 nM.

Consider `CCCCCCCCCC(=O)Oc1ccc(/C(=C(/C)c2ccccc2)c2ccc(OCCN3CCCCC3)cc2)cc1`, for which the IC50 in assay [1] was 81 nM; in assay [2] (mcf7), 1520 nM.

As for `CCCCCCCCCC(=O)Oc1ccc(/C(=C(/C)c2ccccc2)c2ccc(OCCN(C)C)cc2)cc1`, the IC50 worked out at 31.9 nM in [1] and 1120 nM in assay [2] (mcf7).

Molecule `CCC(=C(c1ccc(O)cc1)c1ccc(OCCN(C)C)cc1)c1ccccc1` showed an IC50 in [2] (Homo sapiens, MCF7, 72 h) of 2790 nM.

As for `C/C(=C(/c1ccc(O)cc1)c1ccc(OCCN(C)C)cc1)c1ccccc1`, the IC50 in assay [1] was 1.3 nM; in [2] (mcf7), 1480 nM.

Values taken from ChEMBL document CHEMBL3774317, “Design and synthesis of novel tamoxifen analogues that avoid CYP2D6 metabolism” (Eur J Med Chem, 2016).
